In patent US10189796B2, “[4-(1,3,3-trimethyl-2-oxo-3,4-dihydro-1H-quinoxalin-7-yl)phenoxy]ethyloxy compound or salt thereof” (SANTEN PHARMACEUTICAL CO., LTD., priority 2015, dated 2019):

What was measured:
[1] = test system: exorbital lacrimal gland-removed rat dry eye model; experiment: Dry eye syndrome (dry eye) model evaluation test; type: in vivo; settings: eye drop 5 μL four times a day
Method: In order to evaluate the treatment effect of the present compounds on corneal disorder accompanied by dry eye syndrome (dry eye), a treatment effect on corneal disorder in an exorbital lacrimal gland-removed rat dry eye model was investigated. This model was prepared in accordance with the method of Fujihara, et al. (Invest. Ophthalmol. Vis. Sci., 42(1): 96-100 (2001)). Incidentally, this effect was scored according to the method of Murakami et al. (New Ophthalmologist 21(1): 87-90 (2004)), the extent of corneal disorder was scored and the improvement ratio was calculated from the corneal disorder score of the base agent administered group (control group), the corneal disorder score of the test compound administered group and the corneal disorder score of the normal rat.
A base agent containing a general additive(s) was added to the test compound to prepare test compound suspensions with 0.03% (W/V) and 0.1% (W/V). In addition, a base agent was added to the commercially available drug A to prepare a diluted solution with 0.05% (V/V).
• 1) By using male SD rats, somnopentyl was administered to the rats to apply them general anesthesia, exorbital lacrimal glands were removed, and corneal disorder was induced over 8 weeks thereafter. • 2) The test compound suspension was eye-dropped (instillation dose: 5 μL/time) to both eyes four times a day for 14 days. Incidentally, the base agent was similarly eye-dropped to the administered group (control group), and the commercially available drug A and its diluted solution were similarly eye-dropped. • 3) Fourteen days after the start of eye dropping, the cornea was stained with fluorescein. For each of the upper part, the middle part and the lower part of the cornea, scores of the degree of staining with fluorescein were determined according to the following criteria, and an average value of the total of the scores was calculated. Incidentally, 0.5 was set as an intermediate value between each score of 0, 1, 2 and 3. <<Judgement Standard>>
1: Dyeing is sparse, and the dyed portions of each dot are separated
2: Dyeing is a middle degree and part of the dotted dyed portions is adjacent
3: Dyeing is dense, and the dyed portions of each point are almost adjacent
(Calculation Formula) Corneal disorder improvement ratio (%) of the test compound administered group=(Ao−Ax)/(Ao−An)×100 • Ao: Average value of corneal disorder score of the base agent administered group (control group) • Ax: Average value of corneal disorder score of the test compound administered group • An: Average value of corneal disorder score of normal rat (Test Result and Consideration)

[2] = test system: exorbital lacrimal gland-removed rat dry eye model; experiment: Dry eye syndrome (dry eye) model evaluation test; type: in vivo; settings: eye drop 5 μL four times a day; remark: listed apart in the source
[3] = test system: VEGF-induced retinal elevated vascular permeability model of rabbits; experiment: Retinal vascular permeability model evaluation test; type: in vivo, rabbit; settings: 2% 50 μL/base agent A, intravitreal once; 4 weeks before VEGF induction
Method: In order to evaluate the inhibitory effect of the present compounds on VEGF-induced retinal vascular permeability, the inhibitory effect of the present compound on retinal vascular permeability in a VEGF-induced retinal elevated vascular permeability model of rabbits was evaluated. Incidentally, this effect was evaluated by calculating a leaked amount of the fluorescent dye of the base agent administered group (non-induced group), a leaked amount of the fluorescent dye of the base agent administered group (control group) and a leaked amount of the fluorescent dye of the test compound administered group.
To the test compound was added 0.01% Polysorbate 80/0.5% sodium carboxymethyl cellulose/PBS (hereinafter referred to as “base agent A”.), whereby 2% (W/V) or 8% (W/V) of the test compound suspension was prepared. Or else, to the test compound was added PEG400 (hereinafter referred to as “base agent B”.), whereby 6% (W/W) of the test compound solution was prepared.
VEGF solution: humanVEGF165 was dissolved in PBS to prepare 50 μg/mL of VEGF solution.
• 1) A mixed solution (1 mL/kg) of 5% ketamine hydrochloride injection solution and 2% xylazine hydrochloride injection solution with the ratio of 7:1 was intramuscularly administered to rabbits (Dutch male rabbits), and the rabbits were anesthetized. • 2) Tropicamide-phenylephrine hydrochloride ophthalmic solution (trade name: Midlin P) was eye dropped to maintain pupillary mydriasis, and then, the VEGF solution was intravitreally administered. Incidentally, PBS was intravitreally administered to the base agent administration group (non-induced group). • 3) Fluorescein was intravenously administered 2 days after intravitreal administration of VEGF. Two hours after the intravenous administration of fluorescein, an amount of the leaked fluorescent dye in the vitreous body was measured by using a fluorophotometer. (Test Method) • 1) One week before or 4 weeks before VEGF-induction, 50 μL of the test compound suspension (prepared by the base agent A) was intravitreally administered once, or 5 μL of the test compound solution (prepared by the base agent B) was intravitreally administered once. Incidentally, in the base agent administered group (non-induced group) and the base agent administered group (control group), the base agent A was used in place of the test compound suspension, or the base agent B was used in place of the test compound solution. • 2) Inhibition ratio of elevated retinal vascular permeability was calculated according to the following calculation formula. (Calculation Formula) Inhibitory ratio (%) on elevated retinal vascular permeability of the test compound administered group=100×{1−(average value of a leaked fluorescent dye amount in the test compound administered group−average value of a leaked fluorescent dye amount in the base agent administered group (non-induced group))/(average value of a leaked fluorescent dye amount in the base agent administered group (control group)−average value of a leaked fluorescent dye amount of the base agent administered group (non-induced group))}

| SMILES | Corneal disorder improvement ratio (%) After 14 days eye dropping ([1]; 0.1%) [%] | Corneal disorder improvement ratio (%) After 7 days eye dropping ([2]; 0.1%) [%] | Inhibitory ratio (%) on elevated vascular permeability [3] [%] | Corneal disorder improvement ratio (%) After 14 days eye dropping ([1]; 0.03%) [%] | Corneal disorder improvement ratio (%) After 7 days eye dropping ([2]; 0.03%) [%] |
| --- | --- | --- | --- | --- | --- |
| COc1cc(OC[C@H](C)OC(=O)C(O)CO)ccc1-c1ccc2c(c1COc1cc(F)ccc1C)N(C)C(=O)C(C)(C)N2 (stereo partly drawn) [Compound 13-1, (S)-7-[4-[2-(2,3-dihydroxypropanoyl)oxypropyl]oxy-2-methoxyphenyl]-8-(5-fluoro-2-methylphenoxymethyl)-1,3,3-trimethyl-3,4-dihydro-1H-quinoxalin-2-one] | 46 | 38 |  |  |  |
| COc1cc(OC[C@H](C)OC(=O)C2CCCN2)ccc1-c1ccc2c(c1COc1cc(F)ccc1C)N(C)C(=O)C(C)(C)N2.Cl (stereo partly drawn) [Compound 11-2, 8-(5-Fluoro-2-methylphenoxymethyl)-7-[4-[(2S)-[(2S)-pyrrolidylcarbonyloxy]-propyl]oxy-2-methoxyphenyl]-1,3,3-trimethyl-3,4-dihydro-1H-quinoxalin-2-one hydrochloride] |  |  | 92 |  |  |
| COc1cc(OC[C@H](C)OC(=O)CCC(=O)O)ccc1-c1ccc2c(c1COc1cc(F)ccc1C)N(C)C(=O)C(C)(C)N2 [Compound 12-1, (S)-7-[4-[2-(3-carboxypropanoyloxy)propyl]oxy-2-methoxyphenyl]-8-(5-fluoro-2-methylphenoxymethyl)-1,3,3-trimethyl-3,4-dihydro-1H-quinoxalin-2-one] | 58 | 42 |  | 48 | 33 |
